Assay results taken from patent US10266513B2 (Pfizer Inc., priority 2012, dated 2019).
Like-named read-outs stand apart in the source and are kept apart here.

Key:
[1] = tested on: Human B cells; test: Human Primary B Cell Proliferation Assay (3H-thymidine incorporation, anti-human IgM stimulated); assay type: cell-based; conditions: purified human B cells, 50 μg/mL anti-human IgM F(ab')2, 72 hours
Experimental: Human Primary B Cell Proliferation Assay
Human B cells were purified from buffy coats using the human B cell RosetteSep kit per manufacturer's instructions. Purified cells were resuspended in RPMI-10% HIFCS, 2 mM L-glutamine, 100 U/mL penicillin, 100 μg/ml streptomycin, incubated with compounds for 1 hour at 37° C. and then stimulated with 50 μg/mL anti-human IgM F(ab′)2 for 72 hours. ^3H-thymidine was included in the culture media for the final 8-16 hours. Cells were harvested and ^3H-thymidine incorporation was measured.
Human B cell Proliferation Assay

[2] = tested on: human whole blood; test: Human Whole Blood Histamine Assay (anti-IgE induced histamine release); assay type: cell-based; conditions: heparinized human whole blood, anti-human-IgE 2 μg/ml, histamine release by ELISA, read-out: HWB IC50
Experimental: Human Whole Blood Histamine Assay
Heparinized human whole blood (200 μl) was plated in 96-well V-bottom assay plates (VWR). Compounds diluted in 100% DMSO (1 μl) were added and incubated at 37° C. for 120 minutes. Anti-human-IgE antibody (KPL) was added to a final concentration of 2 μg/ml and assay plates incubated for 30 minutes at 37° C. Plates were spun at 2000 rpm for 8 minutes and the analyzed for histamine release by ELISA kits (Beckman Coulter).
Inhibition curves and IC50 values are determined using Excel-fit.

[3] = target: human full-length BTK Kinase (Homo sapiens (Human), UniProt Q06187); test: Human BTK LanthaScreen Assay (TR-FRET); assay type: biochemical; conditions: 50 μM ATP, FAM-Srctide peptide substrate, read-out: BTK Inhibition IC50
Excerpt: Human BTK LanthaScreen Assay

[4] = target: human EGFR kinase domain (Homo sapiens (Human), UniProt P00533); test: Human EGFR LanthaScreen Selectivity Assay (TR-FRET); assay type: biochemical; conditions: 20 μM ATP
Chain of human EGFR kinase domain (P00533 712-979): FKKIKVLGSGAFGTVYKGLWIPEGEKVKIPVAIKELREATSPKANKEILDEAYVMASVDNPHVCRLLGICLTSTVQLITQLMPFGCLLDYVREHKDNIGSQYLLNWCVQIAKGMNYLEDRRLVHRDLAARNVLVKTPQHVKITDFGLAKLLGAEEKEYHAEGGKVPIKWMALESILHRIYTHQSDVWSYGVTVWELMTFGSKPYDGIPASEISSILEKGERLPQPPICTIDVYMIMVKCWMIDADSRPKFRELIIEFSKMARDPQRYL
Experimental: The kinase reaction mixtures were incubated at room temperature for 60 minutes before stopping the kinase activity by the addition of 15 mM EDTA. The extent of peptide phosphorylation by EGFR was detected using a Terbium-conjugated anti-phospho-Tyrosine antibody (Tb-PT66 antibody, invitrogen # PV3557).

Chain of human full-length BTK Kinase (Q06187 whole entry): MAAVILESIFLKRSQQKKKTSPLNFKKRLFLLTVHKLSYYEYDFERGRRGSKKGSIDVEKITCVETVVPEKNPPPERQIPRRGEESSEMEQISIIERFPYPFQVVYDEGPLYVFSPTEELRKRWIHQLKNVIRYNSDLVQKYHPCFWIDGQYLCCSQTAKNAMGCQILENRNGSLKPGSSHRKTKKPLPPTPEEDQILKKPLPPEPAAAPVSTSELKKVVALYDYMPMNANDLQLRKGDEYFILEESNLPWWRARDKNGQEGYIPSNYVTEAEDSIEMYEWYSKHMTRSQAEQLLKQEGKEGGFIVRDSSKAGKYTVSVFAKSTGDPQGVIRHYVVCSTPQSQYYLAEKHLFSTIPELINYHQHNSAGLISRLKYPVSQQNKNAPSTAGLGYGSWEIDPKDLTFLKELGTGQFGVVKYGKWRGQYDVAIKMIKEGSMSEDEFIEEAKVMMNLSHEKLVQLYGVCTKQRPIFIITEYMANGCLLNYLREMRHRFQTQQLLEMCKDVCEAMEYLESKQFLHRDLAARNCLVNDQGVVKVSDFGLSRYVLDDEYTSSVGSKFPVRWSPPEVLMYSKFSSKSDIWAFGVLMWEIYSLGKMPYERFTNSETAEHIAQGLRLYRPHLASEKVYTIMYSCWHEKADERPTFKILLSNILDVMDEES

`N#CN1CCCC(n2nc(-c3ccc(Oc4ccccc4)cc3)c(C(N)=O)c2N)C1` (single isomer, unassigned) [Example 2] gave an IC50 ([1]; B-cell) of 0.5 nM, an IC50 [2] of 33.3 nM and an IC50 [3] of 0.37 nM. For the same compound, the IC50 [4] was 1710 nM.

In the case of `N#CN1CCCC(n2nc(-c3ccc(Oc4ccc(Cl)cc4)cc3)c(C(N)=O)c2N)C1` (single isomer, unassigned) [Example 15], the IC50 ([1]; B-cell) is reported as 1.7 nM, the IC50 [2] is reported as 20.6 nM and the IC50 [3] is reported as 0.64 nM. For the same compound, the IC50 [4] was 3890 nM.

`N#CN1CCCC(n2nc(-c3ccc(Oc4ccc(F)cc4F)cc3)c(C(N)=O)c2N)C1` (single isomer, unassigned) [Example 27] gave an IC50 ([1]; B-cell) of 2.7 nM, an IC50 [2] of 64.3 nM and an IC50 [3] of 1.3 nM. For the same compound, the IC50 [4] was 16800 nM.

For `N#CN1CCC[C@@H](n2nc(-c3ccc(Oc4ccc(Cl)cn4)cc3)c(C(N)=O)c2N)C1` [Example 110, (R)-5-amino-3-(4-((5-chloropyridin-2-yl)oxy)phenyl)-1-(1-cyanopiperidin-3-yl)-1H-pyrazole-4-carboxamide], the IC50 ([1]; B-cell) was 1.6 nM, the IC50 [2] was 94.7 nM and the IC50 [3] was 9.2 nM. The IC50 [4] was greater than 15400 nM.

With `N#CN1CCC[C@@H](n2nc(-c3ccc(Oc4cccc(C(F)(F)F)n4)cc3)c(C(N)=O)c2N)C1` [Example 116, (R)-5-amino-1-(1-cyanopiperidin-3-yl)-3-(4-((6-(trifluoromethyl)pyridin-2-yl)oxy)phenyl)-1H-pyrazole-4-carboxamide] the IC50 ([1]; B-cell) was 14.9 nM, the IC50 [2] was 41.8 nM and the IC50 [3] was 2.6 nM. For the same compound, the IC50 [4] was greater than 26800 nM.

`N#CN1CCC[C@@H](n2nc(-c3ccc(Oc4ncc(Cl)cc4F)cc3)c(C(N)=O)c2N)C1` [Example 118, (R)-5-amino-3-(4-((5-chloro-3-fluoropyridin-2-yl)oxy)phenyl)-1-(1-cyanopiperidin-3-yl)-1H-pyrazole-4-carboxamide] showed an IC50 ([1]; B-cell) of 29.6 nM, an IC50 [2] of 50 nM and an IC50 [3] of 7.6 nM. It also gave an IC50 [4] greater than 50000 nM.

With `C=CC(=O)N1CCC[C@H](n2nc(-c3ccc(Oc4ccccc4)cc3)c(C(N)=O)c2N)C1` [Example 126, 1-[(3S)-1-acryloylpiperidin-3-yl]-5-amino-3-(4-phenoxyphenyl)-1H-pyrazole-4-carboxamide] the IC50 ([1]; Homo sapiens, B-cell) was 20.9 nM, the IC50 ([2]; Homo sapiens) was 201 nM and the IC50 [4] was 802 nM.

`C=CC(=O)N1CCC[C@@H](n2nc(-c3ccc(Oc4ccc(Cl)cc4)cc3)c(C(N)=O)c2N)C1` [Example 130, 1-[(3R)-1-acryloylpiperidin-3-yl]-5-amino-3-[4-(4-chlorophenoxy)phenyl]-1H-pyrazole-4-carboxamide] gave an IC50 ([1]; B-cell) of 0.15 nM, an IC50 [2] of 133 nM and an IC50 [3] of 0.17 nM. For the same compound, the IC50 [4] was 7.9 nM.

Compound `NC(=O)c1c(-c2ccc(Oc3ccc(Cl)cc3)cc2)nn([C@@H]2CCCN(C(=O)/C=C/CO)C2)c1N` [Example 131, 5-amino-3-[4-(4-chlorophenoxy)phenyl]-1-{(3R)-1-[(2E)-4-hydroxybut-2-enoyl]piperidin-3-yl}-1H-pyrazole-4-carboxamide] has an IC50 ([1]; B-cell) of 1.6 nM, an IC50 [2] of 259 nM and an IC50 [3] of 2.3 nM. The IC50 [4] was 2200 nM.

`C=CC(=O)N1CCC[C@H](n2nc(-c3ccc(Oc4ccc(F)cc4F)cc3)c(C(N)=O)c2N)C1` [Example 136, 1-[(3S)-1-acryloylpiperidin-3-yl]-5-amino-3-[4-(2,4-difluorophenoxy)phenyl]-1H-pyrazole-4-carboxamide] was tested, and the IC50 ([1]; Homo sapiens, B-cell) was 0.44 nM, the IC50 [2] was 570 nM and the IC50 [3] was 7.8 nM. The IC50 [4] was 214 nM.

In the case of `C=CC(=O)N1CCC[C@@H](n2nc(-c3ccc(Oc4ccc(F)cc4F)cc3)c(C(N)=O)c2N)C1` [Example 137, 1-[(3R)-1-acryloylpiperidin-3-yl]-5-amino-3-[4-(2,4-difluorophenoxy)phenyl]-1H-pyrazole-4-carboxamide], the IC50 [1] is reported as 0.63 nM, the IC50 [2] is reported as 31.4 nM and the IC50 [3] is reported as 0.25 nM. It also gave an IC50 [4] of 25.6 nM.

In the case of `NC(=O)c1c(-c2ccc(Oc3ccc(F)cc3F)cc2)nn([C@@H]2CCCN(C(=O)/C=C/CF)C2)c1N` [Example 145, 5-amino-3-[4-(2,4-difluorophenoxy)phenyl]-1-{(3R)-1-[(2E)-4-fluorobut-2-enoyl]piperidin-3-yl}-1H-pyrazole-4-carboxamide], the IC50 ([1]; B-cell) is reported as 11.8 nM, the IC50 [2] is reported as 126 nM and the IC50 [3] is reported as 2.8 nM. The IC50 [4] was 2180 nM.

Work on `NC(=O)c1c(-c2ccc(Oc3ccc(F)cc3F)cc2)nn([C@@H]2CCCN(C(=O)/C=C/CO)C2)c1N` [Example 151, 5-am no-3-[4-(2,4-difluorophenoxy)phenyl]-1-{(3R)-1-[(2E)-4-hydroxybut-2-enoyl]-piperidin-3-yl}-1H-pyrazole-4-carboxamide] yielded an IC50 ([1]; B-cell) of 0.22 nM, an IC50 [2] of 258 nM and an IC50 [3] of 2.3 nM. For the same compound, the IC50 [4] was 12100 nM.

Compound `C=CC(=O)N1CCC[C@@H](n2nc(-c3ccc(Oc4ncc(Cl)cc4F)cc3)c(C(N)=O)c2N)C1` [Example 153, 1-[(3R)-1-acryloylpiperidin-3-yl]-5-amino-3-{4-[(5-chloro-3-fluoropyridin-2-yl)oxy]phenyl}-1H-pyrazole-4-carboxamide] has an IC50 ([1]; B-cell) of 0.56 nM and an IC50 [3] of 0.48 nM.

`NC(=O)c1c(-c2ccc(Oc3ncc(Cl)cc3F)cc2)nn([C@@H]2CCCN(C(=O)/C=C/C(F)F)C2)c1N` [Example 155, 5-amino-3-{4-[(5-chloro-3-fluoropyridin-2-yl)oxy]phenyl}-1-{(3R)-1-[(2E)-4,4-difluorobut-2-enoyl]piperidin-3-yl}-1H-pyrazole-4-carboxamide] gave an IC50 ([1]; B-cell) of 2 nM, an IC50 [3] of 0.7 nM and an IC50 [4] of 106 nM.

`NC(=O)c1c(-c2ccc(Oc3ncc(Cl)cc3F)cc2)nn([C@@H]2CCCN(C(=O)/C=C/CF)C2)c1N` [Example 156, 5-amino-3-{4-[(5-chloro-3-fluoropyridin-2-yl)oxy]phenyl}-1-{(3R)-1-[(2E)-4-fluorobut-2-enoyl]piperidin-3-yl}-1H-pyrazole-4-carboxamide] was tested, and the IC50 ([1]; B-cell) was 2.5 nM, the IC50 [3] was 1.4 nM and the IC50 [4] was 381 nM.

For `NC(=O)c1c(-c2ccc(Oc3ccc(Cl)cn3)cc2)nn([C@@H]2CCCN(C(=O)/C=C/C(F)F)C2)c1N` [Example 159, 5-amino-3-{4-[(5-chloropyridin-2-yl)oxy]phenyl}-1-{(3R)-1-[(2E)-4,4-difluorobut-2-enoyl]piperidin-3-yl}-1H-pyrazole-4-carboxamide], the IC50 ([1]; B-cell) was 2.8 nM, the IC50 [3] was 1.3 nM and the IC50 [4] was 311 nM.

For `NC(=O)c1c(-c2ccc(Oc3ccc(Cl)cn3)cc2)nn(C2CCCN(C(=O)/C=C/CF)C2)c1N` (stereo not shown) [Example 160], the IC50 ([1]; B-cell) was 2.9 nM, the IC50 [3] was 5.5 nM and the IC50 [4] was 890 nM.

`NC(=O)c1c(-c2ccc(Oc3cccc(C(F)(F)F)n3)cc2)nn([C@@H]2CCCN(C(=O)/C=C/C(F)F)C2)c1N` [Example 163, 5-amino-1-{(3R)-1-[(2E)-4,4-difluorobut-2-enoyl]piperidin-3-yl}-3-(4-{[6-(trifluoromethyl)pyridin-2-yl]oxy}phenyl)-1H-pyrazole-4-carboxamide] showed an IC50 ([1]; B-cell) of 0.92 nM and an IC50 [3] of 1.3 nM.

With `NC(=O)c1c(-c2ccc(Oc3cccc(C(F)(F)F)n3)cc2)nn([C@@H]2CCCN(C(=O)/C=C/CF)C2)c1N` [Example 164, 5-amino-1-{(3R)-1-[(2E)-4-fluorobut-2-enoyl]piperidin-3-yl}-3-(4-{[6-(trifluoromethyl)pyridin-2-yl]oxy}phenyl)-1H-pyrazole-4-carboxamide] the IC50 ([1]; B-cell) was 11.4 nM, the IC50 [3] was 3.2 nM and the IC50 [4] was 3360 nM.
